Results taken from patent publication US20020026053A1, “Novel 3-(substituted) -2- indolinones compounds and use thereof as inhibitors of protein kinase activity” (priority 1997, published 2002).

What follows are molecules tested against T1, EGFR (Homo sapiens, UniProt P00533) (assay: Biochemical EGFR Assay). Details: protocol P.167.
T1 construct: endogenous in cells; host or cells: A431 cells (lysate, captured with SUMO1 anti-EGFR antibody)
T1 sequence (P00533 25-1210): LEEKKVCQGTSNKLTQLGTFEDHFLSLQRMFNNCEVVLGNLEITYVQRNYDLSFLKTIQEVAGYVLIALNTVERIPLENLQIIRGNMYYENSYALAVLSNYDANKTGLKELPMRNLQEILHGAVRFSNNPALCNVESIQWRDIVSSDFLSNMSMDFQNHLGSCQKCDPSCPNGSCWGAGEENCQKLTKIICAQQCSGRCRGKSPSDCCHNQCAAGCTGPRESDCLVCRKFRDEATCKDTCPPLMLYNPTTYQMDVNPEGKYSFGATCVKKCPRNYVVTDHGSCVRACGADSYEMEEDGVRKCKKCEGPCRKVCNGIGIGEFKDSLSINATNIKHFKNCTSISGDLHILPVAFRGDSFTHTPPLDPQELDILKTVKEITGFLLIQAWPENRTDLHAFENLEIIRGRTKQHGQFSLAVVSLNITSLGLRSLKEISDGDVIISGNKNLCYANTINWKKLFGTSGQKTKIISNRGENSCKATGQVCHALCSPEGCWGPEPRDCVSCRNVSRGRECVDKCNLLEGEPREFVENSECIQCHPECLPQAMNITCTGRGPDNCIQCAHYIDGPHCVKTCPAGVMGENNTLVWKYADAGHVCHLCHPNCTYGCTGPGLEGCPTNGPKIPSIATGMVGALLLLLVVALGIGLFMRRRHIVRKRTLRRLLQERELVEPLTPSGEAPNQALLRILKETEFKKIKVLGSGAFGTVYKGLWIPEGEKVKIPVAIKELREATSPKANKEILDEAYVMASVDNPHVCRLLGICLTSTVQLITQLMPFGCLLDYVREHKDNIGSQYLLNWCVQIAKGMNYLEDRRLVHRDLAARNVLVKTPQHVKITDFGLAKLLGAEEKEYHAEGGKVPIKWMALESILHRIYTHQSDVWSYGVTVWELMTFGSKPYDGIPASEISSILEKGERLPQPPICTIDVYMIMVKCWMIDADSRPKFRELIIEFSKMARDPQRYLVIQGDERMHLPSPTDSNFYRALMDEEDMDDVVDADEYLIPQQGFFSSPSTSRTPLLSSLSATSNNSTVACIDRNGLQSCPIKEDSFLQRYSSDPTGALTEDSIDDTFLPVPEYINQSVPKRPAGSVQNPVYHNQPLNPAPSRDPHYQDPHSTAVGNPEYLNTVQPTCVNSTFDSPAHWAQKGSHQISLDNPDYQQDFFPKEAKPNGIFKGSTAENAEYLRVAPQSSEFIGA
Parameters: concentration or dose not given beside the values
In short: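 EGFR from A431 lysate was captured on anti-EGFR-coated wells and preincubated 30 min with compound (diluted 1:10 in TBS) at room temperature. After ATP/MnCl2 phosphorylation for 5 min, the reaction was stopped with EDTA. Phosphotyrosine was detected by ELISA (anti-phosphotyrosine, peroxidase conjugate, ABTS) at 410 nm.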
With `Cc1c(Br)ccc2c1C(=Cc1cccc(O)c1O)C(=O)N2` [10738/C06] the “Biochem EGFR % Inhibition (P.167)” value was 28.7%. `CC(C)c1ccc(C=C2C(=O)Nc3ccc(S(=O)(=O)N4CCOCC4)cc32)cc1` [10738/F10] was tested, and the “Biochem EGFR % Inhibition (P.167)” value was −4.8%. For `O=C1Nc2c(Br)cc(Br)cc2C1=Cc1cc(O)ccc1[N+](=O)[O-]` [10738/A05], the “Biochem EGFR % Inhibition (P.167)” value was 33.6%. `CCCOc1ccc(C=C2C(=O)Nc3ccc(S(=O)(=O)NC)cc32)cc1` [10738/D11] was tested, and the “Biochem EGFR % Inhibition (P.167)” value was −13.1%.
